Measured values: PMC12064818, “A general assay platform to study protein pharmacology using ligand-dependent structural dynamics” (Nature Communications, 2025)

Biological target: firefly luciferase (FLuc) (Photinus pyralis, UniProt P08659)
Assay: Thermal shift profiles (Thermofluor assay), FLuc;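 on Thermofluor FLuc, No ATP: normalized first derivative of fluorescence (dF/dT) at the stated temperature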
Assay type: binding
Set-up: unit of the concentration uncertain
Conditions: compound 100 (unit uncertain); for Thermofluor FLuc, ATP: ATP (2 (unit uncertain))

firefly luciferase (FLuc), sequence (P08659 whole entry): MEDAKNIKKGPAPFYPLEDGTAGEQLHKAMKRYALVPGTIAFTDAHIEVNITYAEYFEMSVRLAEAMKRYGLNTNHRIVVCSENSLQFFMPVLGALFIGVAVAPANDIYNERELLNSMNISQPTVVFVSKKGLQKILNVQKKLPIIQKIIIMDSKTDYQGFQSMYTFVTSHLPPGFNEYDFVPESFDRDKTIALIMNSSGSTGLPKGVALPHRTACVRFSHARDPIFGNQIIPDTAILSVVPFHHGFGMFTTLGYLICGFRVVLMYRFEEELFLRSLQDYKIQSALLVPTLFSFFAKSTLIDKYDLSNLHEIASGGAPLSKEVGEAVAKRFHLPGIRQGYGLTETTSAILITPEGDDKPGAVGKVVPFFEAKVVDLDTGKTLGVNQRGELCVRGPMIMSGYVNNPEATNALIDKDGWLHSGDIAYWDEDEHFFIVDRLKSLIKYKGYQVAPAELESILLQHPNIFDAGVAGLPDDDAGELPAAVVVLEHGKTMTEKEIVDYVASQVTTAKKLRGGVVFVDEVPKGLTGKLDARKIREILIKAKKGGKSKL

With `CC(CNC(=O)C1CCN(C(=O)c2ncn3c2COC(c2ccccc2)C3)CC1)c1ccccc1` (centres unmarked) [NCGC 00449795] the “Thermofluor FLuc, No ATP” value (20.000 °C) was 0.224, the “Thermofluor FLuc, ATP” value (20.000 °C) was 0.781 and the “Thermofluor FLuc, No ATP” value (20.993 °C) was 0.114. For the same molecule, the “Thermofluor FLuc, ATP” value (20.993 °C) was 0.794, the “Thermofluor FLuc, No ATP” value (21.987 °C) was 0.126 and the “Thermofluor FLuc, ATP” value (21.987 °C) was 0.808. The “Thermofluor FLuc, No ATP” value (22.980 °C) was 0.133, the “Thermofluor FLuc, ATP” value (22.980 °C) was 0.818 and the “Thermofluor FLuc, No ATP” value (23.974 °C) was 0.087. The “Thermofluor FLuc, ATP” value (23.974 °C) was 0.824, the “Thermofluor FLuc, No ATP” value (24.967 °C) was 0.106 and the “Thermofluor FLuc, ATP” value (24.967 °C) was 0.824. The “Thermofluor FLuc, No ATP” value (25.960 °C) was 0.064, the “Thermofluor FLuc, ATP” value (25.960 °C) was 0.818 and the “Thermofluor FLuc, No ATP” value (26.954 °C) was 0.085. For the same molecule, the “Thermofluor FLuc, ATP” value (26.954 °C) was 0.807, the “Thermofluor FLuc, No ATP” value (27.947 °C) was 0.040 and the “Thermofluor FLuc, ATP” value (27.947 °C) was 0.794. For the same molecule, the “Thermofluor FLuc, No ATP” value (28.940 °C) was 0.026, the “Thermofluor FLuc, ATP” value (28.940 °C) was 0.78 and the “Thermofluor FLuc, No ATP” value (29.934 °C) was 0.058. The “Thermofluor FLuc, ATP” value (29.934 °C) was 0.768, the “Thermofluor FLuc, No ATP” value (30.927 °C) was 0.042 and the “Thermofluor FLuc, ATP” value (30.927 °C) was 0.757. For the same molecule, the “Thermofluor FLuc, No ATP” value (31.921 °C) was 0.056, the “Thermofluor FLuc, ATP” value (31.921 °C) was 0.744 and the “Thermofluor FLuc, No ATP” value (32.914 °C) was 0.053. For the same molecule, the “Thermofluor FLuc, ATP” value (32.914 °C) was 0.724, the “Thermofluor FLuc, No ATP” value (33.907 °C) was 0.025 and the “Thermofluor FLuc, ATP” value (33.907 °C) was 0.688. The “Thermofluor FLuc, No ATP” value (34.901 °C) was 0.000, the “Thermofluor FLuc, ATP” value (34.901 °C) was 0.633 and the “Thermofluor FLuc, No ATP” value (35.894 °C) was 0.005. For the same molecule, the “Thermofluor FLuc, ATP” value (35.894 °C) was 0.557, the “Thermofluor FLuc, No ATP” value (36.887 °C) was 0.023 and the “Thermofluor FLuc, ATP” value (36.887 °C) was 0.463. For the same molecule, the “Thermofluor FLuc, No ATP” value (37.881 °C) was 0.061, the “Thermofluor FLuc, ATP” value (37.881 °C) was 0.358 and the “Thermofluor FLuc, No ATP” value (38.874 °C) was 0.092. The “Thermofluor FLuc, ATP” value (38.874 °C) was 0.252, the “Thermofluor FLuc, No ATP” value (39.868 °C) was 0.154 and the “Thermofluor FLuc, ATP” value (39.868 °C) was 0.156. For the same molecule, the “Thermofluor FLuc, No ATP” value (40.861 °C) was 0.218, the “Thermofluor FLuc, ATP” value (40.861 °C) was 0.078 and the “Thermofluor FLuc, No ATP” value (41.854 °C) was 0.347. The “Thermofluor FLuc, ATP” value (41.854 °C) was 0.026, the “Thermofluor FLuc, No ATP” value (42.848 °C) was 0.433 and the “Thermofluor FLuc, ATP” value (42.848 °C) was 0. For the same molecule, the “Thermofluor FLuc, No ATP” value (43.841 °C) was 0.514, the “Thermofluor FLuc, ATP” value (43.841 °C) was 0 and the “Thermofluor FLuc, No ATP” value (44.835 °C) was 0.555. The “Thermofluor FLuc, ATP” value (44.835 °C) was 0.021, the “Thermofluor FLuc, No ATP” value (45.828 °C) was 0.658 and the “Thermofluor FLuc, ATP” value (45.828 °C) was 0.057. For the same molecule, the “Thermofluor FLuc, No ATP” value (46.821 °C) was 0.723, the “Thermofluor FLuc, ATP” value (46.821 °C) was 0.105 and the “Thermofluor FLuc, No ATP” value (47.815 °C) was 0.793. The “Thermofluor FLuc, ATP” value (47.815 °C) was 0.162, the “Thermofluor FLuc, No ATP” value (48.808 °C) was 0.830 and the “Thermofluor FLuc, ATP” value (48.808 °C) was 0.225. The “Thermofluor FLuc, No ATP” value (50.795 °C) was 0.929, the “Thermofluor FLuc, ATP” value (50.795 °C) was 0.362 and the “Thermofluor FLuc, No ATP” value (51.788 °C) was 0.936. The “Thermofluor FLuc, ATP” value (51.788 °C) was 0.434, the “Thermofluor FLuc, ATP” value (52.782 °C) was 0.507 and the “Thermofluor FLuc, No ATP” value (53.775 °C) was 1.000. For the same molecule, the “Thermofluor FLuc, ATP” value (53.775 °C) was 0.578, the “Thermofluor FLuc, No ATP” value (54.768 °C) was 0.997 and the “Thermofluor FLuc, ATP” value (54.768 °C) was 0.643. The “Thermofluor FLuc, No ATP” value (55.762 °C) was 0.999, the “Thermofluor FLuc, ATP” value (55.762 °C) was 0.699 and the “Thermofluor FLuc, No ATP” value (56.755 °C) was 0.989. For the same molecule, the “Thermofluor FLuc, ATP” value (56.755 °C) was 0.743, the “Thermofluor FLuc, No ATP” value (57.748 °C) was 0.966 and the “Thermofluor FLuc, ATP” value (57.748 °C) was 0.774. The “Thermofluor FLuc, No ATP” value (58.742 °C) was 0.936, the “Thermofluor FLuc, ATP” value (58.742 °C) was 0.793 and the “Thermofluor FLuc, No ATP” value (59.735 °C) was 0.945. For the same molecule, the “Thermofluor FLuc, ATP” value (59.735 °C) was 0.802, the “Thermofluor FLuc, No ATP” value (60.729 °C) was 0.960 and the “Thermofluor FLuc, ATP” value (60.729 °C) was 0.805. The “Thermofluor FLuc, No ATP” value (61.722 °C) was 0.919, the “Thermofluor FLuc, ATP” value (61.722 °C) was 0.804 and the “Thermofluor FLuc, No ATP” value (62.715 °C) was 0.915. The “Thermofluor FLuc, ATP” value (62.715 °C) was 0.801, the “Thermofluor FLuc, No ATP” value (63.709 °C) was 0.911 and the “Thermofluor FLuc, ATP” value (63.709 °C) was 0.797. For the same molecule, the “Thermofluor FLuc, No ATP” value (65.695 °C) was 0.892, the “Thermofluor FLuc, ATP” value (65.695 °C) was 0.793 and the “Thermofluor FLuc, No ATP” value (66.689 °C) was 0.889. The “Thermofluor FLuc, ATP” value (66.689 °C) was 0.799, the “Thermofluor FLuc, No ATP” value (68.676 °C) was 0.909 and the “Thermofluor FLuc, ATP” value (68.676 °C) was 0.827. For the same molecule, the “Thermofluor FLuc, No ATP” value (69.669 °C) was 0.830, the “Thermofluor FLuc, ATP” value (69.669 °C) was 0.847 and the “Thermofluor FLuc, No ATP” value (70.662 °C) was 0.839. The “Thermofluor FLuc, ATP” value (70.662 °C) was 0.865, the “Thermofluor FLuc, No ATP” value (71.656 °C) was 0.811 and the “Thermofluor FLuc, ATP” value (71.656 °C) was 0.881. For the same molecule, the “Thermofluor FLuc, No ATP” value (72.649 °C) was 0.810, the “Thermofluor FLuc, ATP” value (72.649 °C) was 0.893 and the “Thermofluor FLuc, No ATP” value (73.643 °C) was 0.758. For the same molecule, the “Thermofluor FLuc, ATP” value (73.643 °C) was 0.901, the “Thermofluor FLuc, No ATP” value (74.636 °C) was 0.788 and the “Thermofluor FLuc, ATP” value (74.636 °C) was 0.906. For the same molecule, the “Thermofluor FLuc, No ATP” value (75.629 °C) was 0.714 and the “Thermofluor FLuc, ATP” value (75.629 °C) was 0.91.
